Assay results published in article PMC12799524, “Putative new biomarkers for renal transporter-mediated drug-drug interactions: Characterization as substrates of organic cation transporter 2, multidrug and toxin extrusion protein 1, and other important drug transporters” (Drug Metabolism and Disposition, 2025).
“Also recorded” adds a separate entry of the source.

Key:
MATE1 [1] = target: T1, MATE1 (Homo sapiens, UniProt Q96FL8); test: Uptake assay in HEK-MATE1 vs HEK-VC cells (pH 8.0); conditions: for Uptake in HEK-MATE1 cells compared to HEK-VC cells: 10 μM substrate; for Uptake in HEK-MATE1 cells compared to HEK-VC cells (in words) / Effect of cimetidine on uptake in HEK-MATE1 cells: 10 and 100 μM substrate; for Uptake in HEK-MATE1 cells compared to HEK-VC cells (in words): pH 8.0; for Effect of cimetidine on uptake in HEK-MATE1 cells: cimetidine 50 μM; for In Vitro MATE1 (substrate class): summary of in vitro uptake/transport results
T1 sequence (Q96FL8 1-570): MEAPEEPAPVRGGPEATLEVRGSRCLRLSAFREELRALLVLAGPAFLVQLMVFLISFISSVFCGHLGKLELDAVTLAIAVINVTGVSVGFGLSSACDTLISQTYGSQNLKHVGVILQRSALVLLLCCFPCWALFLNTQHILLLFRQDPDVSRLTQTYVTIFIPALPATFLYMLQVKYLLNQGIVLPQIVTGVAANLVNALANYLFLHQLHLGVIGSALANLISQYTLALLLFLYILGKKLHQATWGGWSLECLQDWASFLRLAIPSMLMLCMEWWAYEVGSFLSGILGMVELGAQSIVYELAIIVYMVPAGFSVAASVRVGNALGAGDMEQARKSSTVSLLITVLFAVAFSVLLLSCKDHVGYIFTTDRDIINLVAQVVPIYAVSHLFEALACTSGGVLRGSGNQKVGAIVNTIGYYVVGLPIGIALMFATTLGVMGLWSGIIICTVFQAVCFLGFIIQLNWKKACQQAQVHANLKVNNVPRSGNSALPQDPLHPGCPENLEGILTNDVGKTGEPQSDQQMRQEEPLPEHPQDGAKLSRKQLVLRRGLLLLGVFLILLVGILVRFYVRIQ
Procedure: Transport experiments were performed 48 hours after seeding.
(§1) The intracellular background of all 5 compounds in HEK cells at the beginning of the uptake experiments was investigated 48 hours after seeding without incubation with transport buffer (ie, 0 minutes). […] Then, cells were lysed with ice-cold 80% MeOH containing the aforementioned recovery standards. In addition, the impact of a 5-minute incubation period with transport buffer without added substance was investigated.

P-gp = P-gp (Homo sapiens, UniProt P08183); test: Intracellular accumulation and basal to apical transport in Caco-2 cells with/without valspodar; conditions: for In Vitro P-gp (substrate class): Caco-2 cells, valspodar
Procedure: (§2) The intracellular accumulation and transcellular, basal to apical transport experiments were performed as previously described in monolayers of polarized single-transfected (MDCK-OCT2, MDCK-MATE1) and double-transfected (MDCK-OCT2-MATE1) MDCK cells, MDCK control cells (MDCK-VC), or Caco-2 cells.[22] In brief, cell monolayers were grown in cell culture inserts on porous membranes. For MDCK-VC, MDCK-OCT2 and Caco-2, 5 × 10^5 cells were used per well; for MDCK-OCT2-MATE1, 6 × 10^5 cells were used, and for MDCK-MATE1, 8 × 10^5 cells were used per well. Cells were grown to confluence for 72 hours, induced with 10 mM sodium butyrate 48 hours after seeding for 24 hours (MDCK only), and subsequently used for transport experiments.
(§3) In general, after the cell culture medium was removed from both sides of the monolayers, cells were washed at 37 °C with transport buffer of the same composition as described in the previous section. Experiments were started by replacing the medium in the basal compartment with medium containing the putative biomarkers or [^3H]-labeled positive control substrates. The pH of the buffer on the basal side was 7.3 and 6.5 on the apical side for MDCK cells, whereas it was 7.3 on either side for Caco-2 cells. Cells were incubated at 37 °C and the buffer from the apical compartment was taken after 60 minutes for MDCK cells and after 240 minutes for Caco-2 cells. In case of Caco-2 cells, endogenous P-gp was inhibited by adding 2 μM of valspodar to the basal compartment. To measure the cellular accumulation of the test compounds, the remaining medium was removed at the end of the incubation period and the cell monolayers were rapidly rinsed 3 times with ice-cold 0.9% NaCl in water. Filters were detached from the chambers and placed into 500 μL of 80% MeOH containing the aforementioned recovery standards to lyse cells for subsequent LC-MS analysis or into 600 μL of 0.2% SDS (control experiments only). In the control experiments, the radioactivity of the collected apical medium and the solubilized cell monolayers and protein concentrations of the cell lysates were measured in the same way as described for the experiments with HEK cells.
as §1

MATE1 [2] = target: T1, MATE1; test: Intracellular accumulation and transcellular transport in MDCK-MATE1 monolayers; conditions: for Intracellular accumulation in MDCK-MATE1 cells compared to MDCK-VC cells / Transcellular basal to apical transport in MDCK-MATE1 cells vs MDCK-VC cells: 10 μM basal, 60 minutes
Procedure: as §2, §3, §1

OCT1 = conditions: read-out: Km for OCT1; cited from earlier work
OCT2 = conditions: read-out: Km value for OCT2; ref Ma et al 17; cited from earlier work
human OCT2 [3] = target: T2, human OCT2 (Homo sapiens, UniProt O15244); test: Intracellular accumulation and transcellular transport in MDCK-OCT2 monolayers; format: in vitro ADME; parameters: expressed in transfected cells; conditions: for Intracellular concentration in MDCK-OCT2 cells in comparison to MDCK-VC cells: 10 μM basal, 60 minutes
T2 sequence (O15244 1-555): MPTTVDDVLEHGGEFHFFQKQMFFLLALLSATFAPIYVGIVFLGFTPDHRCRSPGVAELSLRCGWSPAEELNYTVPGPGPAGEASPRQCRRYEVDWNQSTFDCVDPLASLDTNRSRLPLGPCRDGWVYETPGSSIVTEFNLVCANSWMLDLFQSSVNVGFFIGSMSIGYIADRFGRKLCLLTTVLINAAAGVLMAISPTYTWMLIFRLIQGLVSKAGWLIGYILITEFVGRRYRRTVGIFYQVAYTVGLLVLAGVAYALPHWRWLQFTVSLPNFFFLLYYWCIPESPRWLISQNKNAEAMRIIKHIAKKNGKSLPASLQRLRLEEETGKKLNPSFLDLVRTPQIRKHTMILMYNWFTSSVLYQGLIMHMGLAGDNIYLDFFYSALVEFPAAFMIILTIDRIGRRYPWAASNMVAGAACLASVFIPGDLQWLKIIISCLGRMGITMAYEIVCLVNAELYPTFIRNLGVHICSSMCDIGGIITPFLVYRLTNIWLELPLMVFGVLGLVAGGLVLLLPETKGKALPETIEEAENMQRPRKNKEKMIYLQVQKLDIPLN
Procedure: as §2, §3, §1

MATE1 [4] = target: T1, MATE1; test: Concentration-dependent transport in HEK-MATE1 cells (Km, Vmax); format: in vitro ADME; parameters: expressed in transfected cells; host or cells: HEK293 (HEK-MATE1); conditions: HEK-MATE1 net uptake; for Vmax for MATE1-mediated uptake: 5 min; for Km at 5 min: human, HEK-MATE1 cells, read-out: Km for MATE1-mediated transport
Procedure: (§4) Data are presented in percentage of respective controls (which were set to 100%) or in pmol × mg protein^–1 × min^–1 for concentration-dependent transport as mean ± SEM. All results were normalized to the mean protein concentrations of the cell lysates in the respective control experiments.
(§5) Experiments with putative biomarkers in HEK-OCT2 or HEK-MATE1 cells were performed with 6 independent biological replicates, whereas all other experiments involving HEK, MDCK, or Caco-2 cells were performed with 4 independent biological replicates. Pairwise comparisons were analyzed for statistical significance with two-tailed unpaired Student’s t test and multiple comparisons by one-way ANOVA with subsequent Tukey-Kramer multiple comparison test by using GraphPad Prism 10.0.2 (GraphPad Software). A value of P < .05 was considered as statistically significant. Km and Vmax values were determined with Michaelis-Menten enzyme kinetics curve fit using GraphPad Prism 10.0.2.

human OCT2 [5] = target: T2, human OCT2; test: Concentration-dependent transport in HEK-OCT2 cells (Km, Vmax); conditions: concentrations up to 2000 μM; Km not calculable
Procedure: as §4, §5

[6] = 5 minutes, pH 8.0, HEK-VC set to 100%
[7] = 10 μM substrate, 240 minutes, valspodar 2 μM
[8] = 60 minutes without added substance

Sequence of P-gp (P08183 whole entry): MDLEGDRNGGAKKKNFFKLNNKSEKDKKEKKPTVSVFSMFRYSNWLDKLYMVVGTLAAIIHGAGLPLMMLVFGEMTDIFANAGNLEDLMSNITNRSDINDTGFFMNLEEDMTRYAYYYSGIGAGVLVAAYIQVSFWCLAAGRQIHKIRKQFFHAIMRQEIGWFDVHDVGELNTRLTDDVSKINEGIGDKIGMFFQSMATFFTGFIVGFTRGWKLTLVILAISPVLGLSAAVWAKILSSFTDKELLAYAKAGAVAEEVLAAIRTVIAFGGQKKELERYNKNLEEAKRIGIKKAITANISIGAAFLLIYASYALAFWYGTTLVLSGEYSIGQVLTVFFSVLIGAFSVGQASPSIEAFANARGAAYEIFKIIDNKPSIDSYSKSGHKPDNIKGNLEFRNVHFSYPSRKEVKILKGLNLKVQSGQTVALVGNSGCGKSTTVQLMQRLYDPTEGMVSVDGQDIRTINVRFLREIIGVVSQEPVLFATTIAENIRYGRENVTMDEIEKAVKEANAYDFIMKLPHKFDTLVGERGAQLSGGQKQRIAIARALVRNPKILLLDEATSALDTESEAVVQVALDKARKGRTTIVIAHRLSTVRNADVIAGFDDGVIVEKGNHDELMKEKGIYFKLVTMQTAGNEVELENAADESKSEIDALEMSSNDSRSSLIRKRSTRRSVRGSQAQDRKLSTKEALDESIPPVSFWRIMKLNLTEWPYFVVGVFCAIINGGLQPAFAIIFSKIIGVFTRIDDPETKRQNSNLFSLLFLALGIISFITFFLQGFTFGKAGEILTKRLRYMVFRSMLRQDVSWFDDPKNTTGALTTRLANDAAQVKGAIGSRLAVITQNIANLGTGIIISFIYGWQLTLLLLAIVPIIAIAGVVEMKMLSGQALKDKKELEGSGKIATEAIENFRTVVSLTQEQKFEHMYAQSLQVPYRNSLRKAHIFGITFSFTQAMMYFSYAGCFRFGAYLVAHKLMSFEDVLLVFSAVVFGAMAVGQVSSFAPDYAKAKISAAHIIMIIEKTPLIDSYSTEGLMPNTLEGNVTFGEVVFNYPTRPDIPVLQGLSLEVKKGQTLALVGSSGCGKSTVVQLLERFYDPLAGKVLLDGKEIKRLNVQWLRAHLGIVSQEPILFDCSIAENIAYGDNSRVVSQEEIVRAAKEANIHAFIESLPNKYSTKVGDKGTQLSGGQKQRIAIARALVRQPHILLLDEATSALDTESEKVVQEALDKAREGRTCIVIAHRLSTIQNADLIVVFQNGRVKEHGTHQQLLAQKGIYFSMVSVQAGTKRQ

Row | Compound | Uptake in HEK-MATE1 cells compared to HEK-VC cells (MATE1 [1]; [6]) [%] | Uptake ratio in HEK-MATE1 cells compared to HEK-VC cells (MATE1 [1]; 100 μM substrate, 5 minutes, pH 8.0, HEK-VC set to 100%) [%] | Uptake in HEK-MATE1 cells compared to HEK-VC cells (in words) (MATE1 [1]; 5 minutes) | Effect of cimetidine on uptake in HEK-MATE1 cells (MATE1 [1]; 5 minutes) | In Vitro MATE1 (substrate class) (MATE1 [1]) | Effect of valspodar on basal to apical translocation in Caco-2 cells (P-gp; [7]) | In Vitro P-gp (substrate class) (P-gp) | Intracellular accumulation in MDCK-MATE1 cells compared to MDCK-VC cells (MATE1 [2]) | Transcellular basal to apical transport in MDCK-MATE1 cells vs MDCK-VC cells (MATE1 [2]) | Km (OCT1) [µM] | Km (OCT2) [µM] | Intracellular concentration in MDCK-OCT2 cells in comparison to MDCK-VC cells (human OCT2 [3]) | Vmax for MATE1-mediated uptake (MATE1 [4]) [pmol*mg protein^-1*min^-1] | Km at 5 min (MATE1 [4]) [µM] | Intracellular background in HEK-MATE1 cells compared to HEK-VC cells (MATE1 [1]; 0 minutes and 5 minutes without added substance) | Intracellular background in MDCK-MATE1 cells (MATE1 [2]; [8]) | Intracellular background in MDCK-OCT2 cells vs MDCK-VC cells (human OCT2 [3]; [8]) | Transcellular transport in Caco-2 cells with valspodar, of the respective control (P-gp; 10 μM substrate, 240 minutes, valspodar 2 μM, without valspodar set to 100%) [%] | Saturation of net uptake in HEK-OCT2 cells (human OCT2 [5])
1 | NCCc1c[nH]c2ccc(O)cc12 [Serotonin, serotonin] | 2469 | 1461 | significantly higher | significantly reduced | ++ | no significant effect | - | no significant difference | considerably increased | 197 ± 42 | 539 | significantly increased | 154.3 ± 7.3 | 52.7 ± 10.9 |  |  |  |  | 
2 | C[N+](C)(C)CCCCC(=O)[O-] [5-Amino valeric acid betaine, 5-amino valeric acid betaine] |  |  | significantly lower |  | + | no significant effect | - | significant reduction | not statistically significant |  |  | significantly increased |  |  | lower | no 5-amino valeric acid betaine could be detected | much lower |  | 
3 | NCCc1ccc(O)cc1 [Tyramine, tyramine] | 545 |  | significantly higher | significantly reduced | ++ | no significant effect | - | no significant difference |  |  |  | significantly increased |  |  |  |  |  |  | 
4 | Cn1cnc(CCN)c1 [1-Methylhistamine, 1-methylhistamine] | 778 |  | significantly higher | significantly reduced | ++ | significantly reduced | 0 (significant uptake in HEK cells, but less than 300% of respective control cells or significant reduction of transcellular transport in Caco-2 cells, but reduction not below 50% of respective control without valspodar) | no significant difference |  |  |  |  | 441.4 ± 50.5 | 307 ± 88.1 |  |  |  | 67 | did not result in a saturation; also recorded: not saturable
